Results taken from PubChem BioAssay (NCI).
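48-hour exposure; five concentrations; linearly interpolated endpoints. The concentration for 50% growth inhibition is given as GI50. At the TGI there is no net growth.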

Experiments:
Assay in all cases: NCI-60 cell line screen, 48 h
A549 NSCLC = test system: A549 NSCLC
HCC-2998 colon = test system: HCC-2998 colon
HOP-92 NSCLC = test system: HOP-92 NSCLC
OVCAR-4 ovarian = test system: OVCAR-4 ovarian
RPMI-8226 leukemia = test system: RPMI-8226 leukemia
SK-MEL-5 melanoma = test system: SK-MEL-5 melanoma
SNB-19 CNS = test system: SNB-19 CNS
SR leukemia = test system: SR leukemia
T-47D breast = test system: T-47D breast
UO-31 renal = test system: UO-31 renal

SMILES	GI50 (A549 NSCLC) [µM]	TGI (A549 NSCLC) [µM]	GI50 (HCC-2998 colon) [µM]	TGI (HCC-2998 colon) [µM]	GI50 (HOP-92 NSCLC) [µM]	TGI (HOP-92 NSCLC) [µM]	GI50 (OVCAR-4 ovarian) [µM]	TGI (OVCAR-4 ovarian) [µM]	GI50 (RPMI-8226 leukemia) [µM]	TGI (RPMI-8226 leukemia) [µM]	GI50 (SK-MEL-5 melanoma) [µM]	TGI (SK-MEL-5 melanoma) [µM]	GI50 (SNB-19 CNS) [µM]	TGI (SNB-19 CNS) [µM]	GI50 (SR leukemia) [µM]	TGI (SR leukemia) [µM]	GI50 (T-47D breast) [µM]	TGI (T-47D breast) [µM]	GI50 (UO-31 renal) [µM]	TGI (UO-31 renal) [µM]
C[C@@H]1CN(C(=O)c2ccc(NC(=O)c3cc(O[C@H](C)c4c(Cl)ccc(F)c4Cl)c(N)nn3)cc2)C[C@H](C)N1	3.03	15.8	14.5	29.1	0.722	5.18	8.84	24.1	2.37	8.17	1.55	3.44	5.41	18.1	0.0104	2.78	4.51	20.5	3.26	14
O=C1CC(c2ccc(N3CCOCC3)cc2)(c2ccsc2)NC(=O)C1Sc1ccccc1Cl (stereo not given)	> 100	> 100	> 100	> 100	11.8	> 100	> 100	> 100	31.6	> 100	36.6	> 100	30.3	> 100	4.4	> 100	85.9	> 100	34.4	> 100
Cn1cncc1[C@@](N)(c1ccc(Cl)cc1)c1ccc2c(c1)c(-c1cccc(Cl)c1)cc(=O)n2C	2.05	10.2	1.79	7.08	0.174	2.69	2.14	14.7	1.58	9.79	1.8	6.83	5.61	19.7	0.165	4.32	2.57	17.2	1.97	6.97
COc1cc(-c2nc(Nc3nc4ccccc4[nH]3)nc(N)c2C#N)cc(OC)c1OC	30.7	> 100	> 40.8	> 100	0.341	31.8	12.9	34.7	12.5	> 100	0.414	16.2	21	> 100	0.23	> 100	4.27	52.8	85.7	> 100
COc1cccc(C2c3cc4c(cc3OC(C)(O)C2C)OCO4)c1O (stereo not given)		66.6		24.1		47.3		> 96.1		> 100		16.9		> 100		> 42.1		13.1		52.6
CC1=CC(=NC(=O)CBr)C=C/C1=N\S(=O)(=O)c1ccccc1	13.9	34.8	16.5	31.3	1.8	6.77	2.61	13.2	2.9	9.35	1.79	3.98	13.6	26.9	3.41	18.6	2.1	5.04	2.77	12.6
N#C/C(=C\c1ccc(-c2ccc(Cl)cc2)o1)C(=O)Nc1ncc(Cc2ccc(Cl)cc2)s1	1.33	3.05	3.63	> 100	1.97	7.11	0.422	2.01	4.45	> 100	2.51	7.41	2.77	12.8	0.772	6.48	1.91	5.2	2.48	7.87
COc1ccccc1OCC(=O)Nc1sc2c(c1C(N)=O)CCC2	32.4	> 100	> 100	> 100	> 100	> 100	> 100	> 100	> 100	> 100	70.6	> 100	> 100	> 100	> 100	> 100	> 100	> 100	> 100	> 100
CCCN(CCC)C(=O)C1=Cc2ccc(-c3ccc(C(=O)N4CCCC4)cc3)cc2N=C(N)C1	7.69	35.3	14.4	35.8	7.99	54.3	9.45	69.5	7.66	36.4	2.91	10.9	18.8	> 100	4.21	18.3	3.56	26.8	9.15	32.8
CC(C)=CCC[C@H](C)[C@@H]1CC[C@]2(C)C3CC[C@]4(OC4(C)C)C(CCCO)[C@]3(C)CC[C@@]12C (stereo not given in full)	37.7	> 100	7.75	22.5	14.5	34.7	25.3	59	33.6	> 100	22.7	42.9	24	62.3	11.2	28.1	17.4	45.6	33.5	> 100
O=C(Nc1ccccc1O)c1cccc(NC2=C(Cl)C(=O)N(Cc3ccccc3)C2=O)c1	12.4	24.8	3.33	13.4	10.5	24.3	10.3	45.4	0.778	3.4	6.66	14.4	13.9	37.5	0.583	2.57	8.06	28.6	8.53	25.1
CN(C)c1ccc(N2Cc3ccccc3OC3=C2C(=O)c2c(O)ccc(O)c2C3=O)cn1	2.32	6.03	1.18	2.58	0.2	0.467	0.33	1.29	0.235	0.797	0.722	2.01	0.563	2.24	0.127	> 100	0.258	1.27	0.135	0.351
